According to patent US20130331326A1, “METHOD OF INDUCING HEMATOPOIETIC RECONSTRUCTION” (DUKE UNIVERSITY, priority 2011, published 2013):
Entries after “also recorded” stand apart in the source; their conditions may differ.

What was measured:
[1] = system: CD45+MECA- BM cells; experiment: Annexin+ BM hematopoietic cells in mice after 700 cGy TBI; assay type: in vivo, mouse; conditions: systemic EGF x 7 days, day +7, vs saline
Experimental: FIGS. 7A-7G. […] (FIG. 7B) Mean percentage of Annexin^+ Tie2Cre;Bak1^−/−;Bax^Fl/−. […] Non-irradiated BM KSL cells reside predominantly in the G0 (white). G1 light gray, G2/S/M=dark gray. *P=0.002 vs TSF for G0 and ̂P=0.002 vs TSF for G2/S/M, respectively (means±SEM, n=3-5/group). […] The majority of non-irradiated cells were in G0 (white). […] The Mann-Whitney test was utilized for all comparisons unless otherwise noted.
(§1) Cell apoptosis and necrosis were analyzed by flow cytometry according to manufacturer's protocols with Annexin V-FITC and 7-AAD staining (BD, San Jose, Calif.). […] Cells were fixed and permeabilized with Fix Buffer I and Perm Buffer III (BD), and then stained with mouse anti-phospho-AKT-S473 PE (BD) or isotype control. Cell cycle analysis was performed by flow cytometric analysis modified from previous reports (Jordan et al, Exp. Hematol. 24:1347-1355 (1996), Chute et al, Hum. Gene Ther. 11:2515-2528 (2000), Sungartz et al, Blood 119:1308-1309 (2012)). Briefly, cells were fixed and permeabilized with 0.25% Saponin (Calbiochem, La Jolla, Calif.), 2.5% paraformaldehyde, 2% FBS in 1×PBS, and then labeled with Ki67-FITC and 7-AAD (BD). BM lin^− cells from VavCre;EGFR^+/+ or VavCre;EGER^fl/fl were cultured with TSF or TSF+10 μM erlotinib, or TSF following 300 cGy for 72 hours, and then collected for total cell counts and CFCs analysis.

[2] = system: MAPK; experiment: Phosphorylation of MAPK in irradiated BM KSL cells; assay type: cell-based, mouse; conditions: EGF treatment of irradiated BM KSL cells in culture; data not shown
Source text: EGFR signaling can activate multiple signaling cascades, including the MAPK and PI3k/Akt signaling pathways (Sordella et al, Science 305:1163-1167 (2004), Yang et al, Nature 480:118-122 (2011), Hynes and Lane, Nat. Rev. Cancer 5:341-354 (2005), Wheeler et al, Nat. Rev. Clin. Oncol. 7:493-507 (2010)). […] A further examination was made of whether inhibition of Akt signaling could negate EGF-mediated induction of BM stem/progenitor cell cycling following irradiation.

[3] = system: BM KSL cells; experiment: Culture of 300 cGy-irradiated BM KSL cells with BM ECs or TSF cytokines; CFC and CFU-S12 recovery; assay type: cell-based, mouse
Experimental: BM cells were collected into PBS (Cellgro, Manassas, Va.) with 10% fetal bovine serum (Hyclone, Logan, Utah) and 1% penicillin/streptomycin (GIBCO, Grand Island, N.Y.). Viable BM cells were quantified using Trypan Blue Stain (Lonza, Basel, Switzerland) to exclude apoptotic and dead cells. Cells were then incubated with anti-c-kit, anti-Sca-1, anti-lineage cocktail, anti-CD41, anti-CD48, and anti-CD150 antibodies (Biolegend and eBiosciences, San Diego, Calif.; BD, San Jose, Calif.) to measure ckit^+sca-1^+lin^− (KSL) progenitor cells or CD150′CD41^−CD48^−KSL (SLAM/KSL) as previously described (Kiel et al, Cell 121:1109-1121 (2005)). Colony forming cells (CFCs) and CFU-S12 assays were also performed to measure functional hematopoietic stem/progenitor cell content. For CFCs, either whole BM or cultured lineage−cells, or KSL cells were plated onto methylcellulose (StemCell Technologies, Vancouver, BC, Canada), and colonies were scored on day 14. 1×10^5 BM or 2×10^5 cells were collected from donor mice and injected via tail vein into recipient C57B16 mice that had been given 950 cGy TBI. At day +12 post-injection, spleens from recipient mice were harvested and stained with Bouin's fixative solution (Ricca Chemical Company, Arlington, Tex.), and colonies were counted as previously described (Till and MeRadiat. Res. 14:213-222 (1961)). Complete blood counts were performed on a HemaVet 950 (Drew Scientific, Dallas, Tex.). […]

[4] = system: BM KSL cells; experiment: BrdU incorporation in BM KSL cells in vivo after 700 cGy TBI; set-up: species or system mouse; conditions: day +7 following 700 cGy TBI, EGF daily x 7 days, vs saline
Experimental: Cell proliferation was measured in C57B16 mice exposed to 700 cGy TBI and administered 5-bromo-2-deoxyridine (BrdU, BD) in drinking water from the day of irradiation until day +7. BM cells were labeled with anti-cKit PE, anti-scal PE-Cy7, anti-lineage APC, and anti-BrdU FITC. Incorporation of BrdU was analyzed by flow cytometry according to the manufacturer's staining protocol (BD).

[5] = system: BM KSL cells; experiment: Cell cycle analysis (Ki67/7-AAD) of irradiated BM KSL cells; assay type: cell-based, mouse
Experimental: as §1

[6] = system: BM 34-KSL cells; experiment: Competitive transplantation of the progeny of cultured BM 34-KSL cells; assay type: cell-based, mouse; conditions: progeny of 300 cGy-irradiated, EGF-treated BM 34-KSL cells; 8 weeks post-transplant
[7] = 20 ng/mL EGF added to non-contact FL/+ EC cultures of 300 cGy-irradiated BM KSL cells, vs FL/+ ECs alone
[8] = EGF added to irradiated BM KSL cells cultured with cytokines (TSF), day 7, vs cytokines alone
[9] = 300 cGy, cytokines + EGF, 72 hours of culture

With “EGF: epidermal growth factor; recombinant EGF (R&D Systems)” the “decreased Annexin+ BM hematopoietic cells” value [1] was 4 fold, the “phosphorylation of MAPK” value [2] was “did not alter the phosphorylation of MAPK” and the “increase in CFCs recovered at day 7” value [3, 7] was 2.2 fold. The “increase in CFU-S12 recovered at day 7” value [3, 7] was 2.6 fold, the “recovery of CFCs in culture” value ([3]; 300 cGy BM KSL cells from Tie2Cre;Bak1-/-;BaxFl/- mice, TSF + 20 ng/ml EGF, 72 hours, vs cytokines alone) was “increased CFCs; also recorded: increase in recovery of CFCs” and the “increase in CFCs” value [3, 8] was 3 fold. For the same substance, the “increase in CFU-S12” value [3, 8] was 4 fold, the “increase in BM CFC recovery” value ([3]; EGF treatment, 72 hours following radiation exposure, vs TSF alone) was 3 fold and the “regeneration of BM stem and progenitor cells (CFC, CFUS12)” value ([3]; Example 1, 300 cGy KSL cells, 7 days with BaxFl+ endothelial cells with and without EGF) was “induced regeneration of BM stem and progenitor cells”. The “BrdU incorporation in BM KSL cells” value [4] was “significantly increased; also recorded: marked increase”, the “cycling of BM KSL cells from Tie2Cre;Bak1-/-;BaxFl/- mice” value ([5]; 300 cGy in vitro, TSF + 20 ng/ml EGF, 72 hours, vs TSF) was “significantly decreased G0 cells and increased G2/S/M cells; also recorded: significantly increased the cycling” and the “KSL cells in G1” value [5, 9] was 51%. For the same substance, the “KSL cells in G2/S/M phase” value [5, 9] was 31%, the “KSL cells remaining in G0” value [5, 9] was 17% and the “donor hematopoietic cell repopulation, higher vs cytokine cultures alone” value [6] was 3 fold.
